Measured values taken from patent US8541670B2, “Compositions and methods for inhibiting tumor cell growth” (priority 2007, dated 2013).
Where no end group is shown, it is not given here. red fluorescent dye = not defined here

Legend:
[1] = biological target: AKT-PKAc complex (Mus musculus, UniProt P31750); test: In vivo co-immunoprecipitation of AKT-PKAc complex from striatum; parameters: ZaTa could disrupt the physical complex between AKT and PKAc in vivo; from tissue; host or cells: striatum of adult C57BL/6 mouse; species or system C57BL/6 mouse; details: versus vehicle-treated hemisphere
Description: The phenotypic consequence of disrupting the AKT-PKAc complex was also determined. ZaTa peptide was injected into the striatum of one hemisphere of the brain and DMSO, as vehicle, was injected into the other brain hemisphere of an adult C57BL/6 mouse under anesthesia. The brain was removed and dissected. Equal protein amounts from each hemisphere were subjected to immunoprecipitation by an anti-AKT antibody. […] To compare PKAc protein levels in the ZaTa- and vehicle-treated brain hemisphere lysates, western blot analysis was conducted.

[2] = biological target: T1, JAK3 (Homo sapiens, UniProt P52333); test: Cell-based kinase assay, phosphorylation of intracellular substrate (Tyr-1022/1023 JAK1)
T1 construct: endogenous in cells
T1 sequence (P52333 1-1124): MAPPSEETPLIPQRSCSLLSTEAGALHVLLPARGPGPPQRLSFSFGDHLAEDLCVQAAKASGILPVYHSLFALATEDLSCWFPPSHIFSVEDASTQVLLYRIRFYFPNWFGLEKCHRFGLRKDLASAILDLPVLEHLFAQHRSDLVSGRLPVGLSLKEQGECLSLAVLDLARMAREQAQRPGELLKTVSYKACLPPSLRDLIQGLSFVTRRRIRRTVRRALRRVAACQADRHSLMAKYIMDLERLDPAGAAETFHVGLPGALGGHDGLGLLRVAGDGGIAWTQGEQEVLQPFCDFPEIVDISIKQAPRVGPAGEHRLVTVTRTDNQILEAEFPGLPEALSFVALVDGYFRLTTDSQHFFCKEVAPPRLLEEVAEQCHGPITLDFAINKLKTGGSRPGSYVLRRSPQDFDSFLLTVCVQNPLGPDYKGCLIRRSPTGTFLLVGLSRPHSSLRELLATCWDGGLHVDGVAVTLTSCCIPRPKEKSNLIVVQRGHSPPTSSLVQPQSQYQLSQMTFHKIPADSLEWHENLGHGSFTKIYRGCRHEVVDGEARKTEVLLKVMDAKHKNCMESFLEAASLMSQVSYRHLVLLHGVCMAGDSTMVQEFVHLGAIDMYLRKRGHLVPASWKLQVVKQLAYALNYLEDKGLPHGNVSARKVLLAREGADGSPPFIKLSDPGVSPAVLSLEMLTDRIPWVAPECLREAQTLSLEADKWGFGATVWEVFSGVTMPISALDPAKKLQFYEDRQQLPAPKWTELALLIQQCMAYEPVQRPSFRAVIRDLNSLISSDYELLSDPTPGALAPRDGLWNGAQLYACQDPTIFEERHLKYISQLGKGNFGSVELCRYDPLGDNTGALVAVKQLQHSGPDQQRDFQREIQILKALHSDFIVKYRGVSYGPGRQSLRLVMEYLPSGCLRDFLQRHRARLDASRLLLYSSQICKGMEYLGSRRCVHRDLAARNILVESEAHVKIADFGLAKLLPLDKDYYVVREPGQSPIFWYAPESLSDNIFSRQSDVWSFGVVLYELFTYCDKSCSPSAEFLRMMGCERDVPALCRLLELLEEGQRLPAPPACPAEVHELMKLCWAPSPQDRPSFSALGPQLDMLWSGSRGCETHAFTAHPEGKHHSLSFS
Description: As a specific substrate, the phosphorylation level of GSK-3[…] at Ser-9 was also evaluated. […] The decrease was specific to the AKT phosphorylation site on GSK-3[…] at Ser-9, since a change in the phosphorylation level of GSK-3[…] at Tyr-216 or GSK-3[…] at Tyr-279 was not observed. Moreover, the in vivo reduction of the phosphorylation of AKT substrates was more obvious at the injection site, since a significant change in the phosphorylation of AKT substrates in the frontal cortex or cerebellum between the two hemispheres was not observed. […] To test the specificity/selectivity of ZaTa as the inhibitor of AKT1 versus the other major kinases, a series of in vitro kinase assays was performed at IC50 for AKT1 and at ten times higher concentrations. […]
Phosphorylation sites for kinases analyzed herein included Ser-235/236 S6 (a substrate for p70S6K), Tyr-207 CRKL (a substrate for Abl; Zipfel, et al. (2004) supra), Ser-241 PDK1 (a substrate for PI3K), Tyr-1022/1023 JAK1 (a substrate for JAK3; Wang, et al. (2003) supra), Ser-421 Huntingtin (a substrate for SGK; Rangone, et al. (2004) supra), Tyr-783 PLC (a substrate for TrkB; Middlemas, et al. (1994) supra), and Ser-338 cRaf (a substrate for PAK3; King, et al. (1998) supra).

AKT-PKAc complex, sequence (P31750 whole entry, one chain of several): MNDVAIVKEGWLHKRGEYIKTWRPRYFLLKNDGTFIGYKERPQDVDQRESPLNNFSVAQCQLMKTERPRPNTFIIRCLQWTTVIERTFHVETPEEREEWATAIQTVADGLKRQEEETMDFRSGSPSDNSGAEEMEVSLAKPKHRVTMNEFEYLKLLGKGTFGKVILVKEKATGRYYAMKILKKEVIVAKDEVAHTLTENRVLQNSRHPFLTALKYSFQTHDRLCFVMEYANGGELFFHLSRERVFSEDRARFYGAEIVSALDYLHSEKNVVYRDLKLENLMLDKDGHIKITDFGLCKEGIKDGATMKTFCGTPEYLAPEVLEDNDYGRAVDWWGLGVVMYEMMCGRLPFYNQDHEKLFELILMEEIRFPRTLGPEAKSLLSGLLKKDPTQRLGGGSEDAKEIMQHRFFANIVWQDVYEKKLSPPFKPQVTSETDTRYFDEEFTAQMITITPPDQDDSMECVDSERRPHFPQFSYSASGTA

Substance | amount of PKAc in physical contact with AKT, in vivo [1] | inhibition of JAK3 in cells [2]
AKRVKGRTWTLCGTPEY [ZaTa] | dramatically reduced | 
labeled ZaTa: ZaTa peptide labeled with a red fluorescent dye at its N-terminus ({red fluorescent dye}-AKRVKGRTWTLCGTPEY; reading uncertain) |  | did not cause inhibition
